Reference: ChEMBL document CHEMBL5126573, “Scaffold modifications to the 4-(4,4-dimethylpiperidinyl) 2,6-dimethylpyridinyl class of HIV-1 allosteric integrase inhibitors” (Bioorg Med Chem, 2022)

Tested on: Human immunodeficiency virus 1
Assay: Antiviral activity against recombinant HIV1 NLRep-Rluc harbouring polymorphic 124T/125T integrase infected in human MT2 cells assessed as inhibition of virus growth in presence of fetal bovine serum by measuring luciferase activity after 5 days by Luciferase Assay
Format: functional, organism-based
Details: Human immunodeficiency virus 1, NLRep-Rluc, MT2, 120 h
`Cc1nc2c(-c3ccc(OCCc4ccc(F)cc4)cc3)c(N3CCC(C)(C)CC3)c([C@H](OC(C)(C)C)C(=O)O)c(C)n2n1` showed an EC50 of 1.3 nM.
With `Cc1c([C@H](OC(C)(C)C)C(=O)O)c(N2CCC(C)(C)CC2)c(-c2ccc(OCCc3ccc(F)cc3)cc2)c2nncn12` the EC50 was 11.9 nM.
Molecule `Cc1nc2c(C)c(N3CCC(C)(C)CC3)c([C@H](OC(C)(C)C)C(=O)O)c(C)n2n1` has an EC50 of 207 nM.
`Cc1c([C@H](OC(C)(C)C)C(=O)O)c(N2CCC(C)(C)CC2)c(-c2ccc(OCCc3ccc(F)cc3)cc2)c2ccnn12` showed an EC50 of 12.9 nM.
`CCc1cn2c(C)c([C@H](OC(C)(C)C)C(=O)O)c(N3CCC(C)(C)CC3)c(-c3ccc(OCCc4ccc(F)cc4)cc3)c2n1` gave an EC50 of 1 nM.

Tested on: Human immunodeficiency virus 1
Assay: Antiviral activity against recombinant HIV1 NLRep-Rluc harbouring polymorphic 124N/125A integrase infected in human MT2 cells assessed as inhibition of virus growth in presence of fetal bovine serum by measuring luciferase activity after 5 days by Luciferase Assay
Format: functional, organism-based
Details: Human immunodeficiency virus 1, NLRep-Rluc, MT2, 120 h
`Cc1nc2c(-c3ccc(OCCc4ccc(F)cc4)cc3)c(N3CCC(C)(C)CC3)c([C@H](OC(C)(C)C)C(=O)O)c(C)n2n1` showed an EC50 of 2.7 nM.
In the case of `Cc1c([C@H](OC(C)(C)C)C(=O)O)c(N2CCC(C)(C)CC2)c(-c2ccc(OCCc3ccc(F)cc3)cc2)c2nncn12`, the EC50 is reported as 13.7 nM.
For `Cc1nc2c(C)c(N3CCC(C)(C)CC3)c([C@H](OC(C)(C)C)C(=O)O)c(C)n2n1`, the EC50 was 540 nM.
With `Cc1c([C@H](OC(C)(C)C)C(=O)O)c(N2CCC(C)(C)CC2)c(-c2ccc(OCCc3ccc(F)cc3)cc2)c2ccnn12` the EC50 was 26.3 nM.
Work on `CCc1cn2c(C)c([C@H](OC(C)(C)C)C(=O)O)c(N3CCC(C)(C)CC3)c(-c3ccc(OCCc4ccc(F)cc4)cc3)c2n1` yielded an EC50 of 2.4 nM.

Tested on: Human immunodeficiency virus 1
Assay: Antiviral activity against recombinant HIV1 NLRep-Rluc harbouring polymorphic 124A/125A integrase infected in human MT2 cells assessed as inhibition of virus growth in presence of fetal bovine serum by measuring luciferase activity after 5 days by Luciferase Assay
Format: functional, organism-based
Details: Human immunodeficiency virus 1, NLRep-Rluc, MT2, 120 h
For `Cc1nc2c(-c3ccc(OCCc4ccc(F)cc4)cc3)c(N3CCC(C)(C)CC3)c([C@H](OC(C)(C)C)C(=O)O)c(C)n2n1`, the EC50 was 2.2 nM.
`Cc1c([C@H](OC(C)(C)C)C(=O)O)c(N2CCC(C)(C)CC2)c(-c2ccc(OCCc3ccc(F)cc3)cc2)c2nncn12` gave an EC50 of 15.8 nM.
`Cc1nc2c(C)c(N3CCC(C)(C)CC3)c([C@H](OC(C)(C)C)C(=O)O)c(C)n2n1` gave an EC50 of 1210 nM.
Molecule `Cc1c([C@H](OC(C)(C)C)C(=O)O)c(N2CCC(C)(C)CC2)c(-c2ccc(OCCc3ccc(F)cc3)cc2)c2ccnn12` has an EC50 of 35.3 nM.
In the case of `CCc1cn2c(C)c([C@H](OC(C)(C)C)C(=O)O)c(N3CCC(C)(C)CC3)c(-c3ccc(OCCc4ccc(F)cc4)cc3)c2n1`, the EC50 is reported as 1.8 nM.

Tested on: not listed separately
Assay: Cytotoxicity against human MT2 cells infected with HIV1 NLRep-Rluc harbouring polymorphic 124T/125T integrase
Format: toxicity, cell-based
Details: MT2 cells infected with HIV-1 NLRep-Rluc
With `Cc1nc(C)c([C@H](OC(C)(C)C)C(=O)O)c(N2CCC(C)(C)CC2)c1-c1ccc(OCCc2ccc(F)cc2)cc1` the CC50 was ≥ 18.2 µM.
In the case of `Cc1nc2c(-c3ccc(OCCc4ccc(F)cc4)cc3)c(N3CCC(C)(C)CC3)c([C@H](OC(C)(C)C)C(=O)O)c(C)n2n1`, the CC50 is reported as ≥ 40 µM.
In the case of `Cc1c([C@H](OC(C)(C)C)C(=O)O)c(N2CCC(C)(C)CC2)c(-c2ccc(OCCc3ccc(F)cc3)cc2)c2nncn12`, the CC50 is reported as ≥ 18.2 µM.
For `Cc1nc2c(C)c(N3CCC(C)(C)CC3)c([C@H](OC(C)(C)C)C(=O)O)c(C)n2n1`, the CC50 was ≥ 3 µM.
With `Cc1c([C@H](OC(C)(C)C)C(=O)O)c(N2CCC(C)(C)CC2)c(-c2ccc(OCCc3ccc(F)cc3)cc2)c2ccnn12` the CC50 was ≥ 18.2 µM.
With `CCc1cn2c(C)c([C@H](OC(C)(C)C)C(=O)O)c(N3CCC(C)(C)CC3)c(-c3ccc(OCCc4ccc(F)cc4)cc3)c2n1` the CC50 was ≥ 10.3 µM.

Tested on: not listed separately
Assay: Metabolic stability in human liver microsomes assessed as half life
Format: ADME, Microsome
Details: not given
For `Cc1nc(C)c([C@H](OC(C)(C)C)C(=O)O)c(N2CCC(C)(C)CC2)c1-c1ccc(OCCc2ccc(F)cc2)cc1`, the half-life was > 120 min.
In the case of `Cc1nc2c(-c3ccc(OCCc4ccc(F)cc4)cc3)c(N3CCC(C)(C)CC3)c([C@H](OC(C)(C)C)C(=O)O)c(C)n2n1`, the half-life is reported as > 120 min.
With `CCc1cn2c(C)c([C@H](OC(C)(C)C)C(=O)O)c(N3CCC(C)(C)CC3)c(-c3ccc(OCCc4ccc(F)cc4)cc3)c2n1` the half-life was > 120 min.

Tested on: not listed separately
Assay: Metabolic stability in rat liver microsomes assessed as half life
Format: ADME, Microsome
Details: not given
For `Cc1nc(C)c([C@H](OC(C)(C)C)C(=O)O)c(N2CCC(C)(C)CC2)c1-c1ccc(OCCc2ccc(F)cc2)cc1`, the half-life was > 120 min.
In the case of `Cc1nc2c(-c3ccc(OCCc4ccc(F)cc4)cc3)c(N3CCC(C)(C)CC3)c([C@H](OC(C)(C)C)C(=O)O)c(C)n2n1`, the half-life is reported as > 120 min.
In the case of `CCc1cn2c(C)c([C@H](OC(C)(C)C)C(=O)O)c(N3CCC(C)(C)CC3)c(-c3ccc(OCCc4ccc(F)cc4)cc3)c2n1`, the half-life is reported as > 120 min.

Tested on: not listed separately
Assay: Metabolic stability in Sprague-Dawley rat assessed as clearance at 1 mg/kg, iv
Format: ADME, organism-based
Details: in vivo
For `Cc1nc2c(-c3ccc(OCCc4ccc(F)cc4)cc3)c(N3CCC(C)(C)CC3)c([C@H](OC(C)(C)C)C(=O)O)c(C)n2n1`, the clearance was 20.1 mL/min/kg.
In the case of `CCc1cn2c(C)c([C@H](OC(C)(C)C)C(=O)O)c(N3CCC(C)(C)CC3)c(-c3ccc(OCCc4ccc(F)cc4)cc3)c2n1`, the clearance is reported as 57.3 mL/min/kg.

Tested on: not listed separately
Assay: AUC (0 to infinity) in Sprague-Dawley rat at 5 mg/kg, po
Format: ADME, organism-based
Set-up: time infinity, dose 5 mg/kg, route po
Details: in vivo
For `Cc1nc(C)c([C@H](OC(C)(C)C)C(=O)O)c(N2CCC(C)(C)CC2)c1-c1ccc(OCCc2ccc(F)cc2)cc1`, the AUC(0-inf) was 14 µM·h.
`Cc1nc2c(-c3ccc(OCCc4ccc(F)cc4)cc3)c(N3CCC(C)(C)CC3)c([C@H](OC(C)(C)C)C(=O)O)c(C)n2n1` gave an AUC(0-inf) of 2.71 µM·h.

Tested on: not listed separately
Assay: Oral bioavailability in Sprague-Dawley rat at 5 mg/kg
Format: ADME, organism-based
Details: in vivo
`Cc1nc2c(-c3ccc(OCCc4ccc(F)cc4)cc3)c(N3CCC(C)(C)CC3)c([C@H](OC(C)(C)C)C(=O)O)c(C)n2n1` showed a bioavailability of 39%.

Tested on: not listed separately
Assay: Permeability of the compound at pH 7.4 by PAMPA assay
Format: ADME
Details: read-out: permeability
In the case of `CCc1cn2c(C)c([C@H](OC(C)(C)C)C(=O)O)c(N3CCC(C)(C)CC3)c(-c3ccc(OCCc4ccc(F)cc4)cc3)c2n1`, the Papp is reported as 34.3 ×10⁻⁶ cm/s.

Tested on: not listed separately
Assay: Toxicity in rat H4-II-E cells assessed as fold change in lipid droplet formation at 10 uM incubated for 72 hrs boron-dipyrromethene staining based by high content screening (HCS) fluorescence analysis relative to control
Format: cell-based
Details: not given
In the case of `Cc1nc(C)c([C@H](OC(C)(C)C)C(=O)O)c(N2CCC(C)(C)CC2)c1-c1ccc(OCCc2ccc(F)cc2)cc1`, the “fold change (FC)” value is reported as 4.

Tested on: not listed separately
Assay: Toxicity in human Huh-7 cells assessed as fold change in lipid droplet formation at 10 uM incubated for 72 hrs boron-dipyrromethene staining based by high content screening (HCS) fluorescence analysis relative to control
Format: cell-based
Details: huh-7, 72 h
For `Cc1nc(C)c([C@H](OC(C)(C)C)C(=O)O)c(N2CCC(C)(C)CC2)c1-c1ccc(OCCc2ccc(F)cc2)cc1`, the “fold change (FC)” value was 3.7.
